Target: T1, 5α-reductase (Homo sapiens, UniProt P18405)
T1 construct: host or cells: Hs68 human genital skin fibroblasts
T1 sequence (P18405 1-259): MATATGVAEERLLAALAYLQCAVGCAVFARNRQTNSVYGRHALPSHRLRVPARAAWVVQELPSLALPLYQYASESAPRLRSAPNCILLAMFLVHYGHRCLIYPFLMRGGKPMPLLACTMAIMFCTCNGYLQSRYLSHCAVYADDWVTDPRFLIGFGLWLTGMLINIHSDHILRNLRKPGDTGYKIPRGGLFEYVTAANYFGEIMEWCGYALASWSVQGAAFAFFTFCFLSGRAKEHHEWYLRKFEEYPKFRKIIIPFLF
Assay: 5α-Reductase activity in Hs68 human genital skin fibroblasts (conversion of labeled testosterone, TLC analysis)
Assay type: cell-based
Details: Hs68, test compound 0.316 µM; Hs68 cells; substrate testosterone 12 µM; incubated four hours
Description: Cell Culture: 5α-Reductase activity was measured using Hs68 human genital skin fibroblasts which were originally purchased from the American Type Culture Collection (Rockville, MD). The cells were grown in Dulbecco's Modified Eagle's Medium (DMEM) plus 10% stripped fetal bovine serum which was supplemented with amphotericin B ([…]) and gentamicin ([…]) (GIBCO, Grand Island, NY). The serum was stripped of endogenous steroids by incubation with dextran-coated charcoal prior to its addition to the media. The cells were maintained at 37°C in an atmosphere of 95% air, 5% CO2 and were passaged every 7-10 days by exposure to a trypsin-EDTA solution (0.025% trypsin, 0.265 mM EDTA). Prior to the assay the Hs68 cells were harvested and plated in Falcon 6-well plates (Becton Dickinson Labware, Lincoln Park, NJ) at a density of 6 x 10^4 cells per well. The cells were allowed to grow for 4-5 days or until they reached approximately 80% confluence.
Assay Method I: The substrate was prepared by dissolving unlabeled testosterone (Sigma Chemical Co., St. Louis, MO) in absolute ethanol followed by the addition of [7-^3H (N)]-testosterone (23.3 Ci/mmole, New England Nuclear, Boston, MA). The steroid solution was taken to dryness under a stream of nitrogen and then reconstituted in media.
Assay Method II: The substrate used for this method was [^14C]-testosterone (50 mCi/mmol) (New England Nuclear, Boston, MA). An aliquot of the substrate was taken to dryness under a stream of nitrogen. After the addition of 30 µl of ethanol, the testosterone was dissolved in an appropriate volume of media.
Sample Preparation: The test compounds were brought up in absolute ethanol in order to achieve the desired concentration. Subsequent dilutions of the test compounds with media were performed by the Biomek 1000 Automated Laboratory Workstation (Beckman Instruments, Palo Alto, CA). The existing media in the sample wells was aspirated and replaced with fresh media. Test compound was then added to the wells followed by the addition of 0.5 ml of substrate. The volume of the incubation mixture was maintained at 2.0 ml. The final substrate concentration was 12 µM. The concentration of the test compounds ranged from 0.001-150 µM. An additional three wells (background) containing media and substrate but no cells were also included to account for the non-enzymatic metabolism of the substrate. The plates were returned to the incubator and incubated for four hours.
At the end of the incubation the media was collected and transferred to an extraction tube containing 5 ml of toluene-ethanol (9:1), to which has been added 20-250 µg each of unlabeled carrier steroids (estriol, estradiol, estrone, 5α-androstan-3α,17β-diol, 5α-androstan-3β,17β-diol, 4-androstene-3,17-dione, 5α-androstan-3,17-dione, testosterone, and 5α-dihydrotestosterone) (Steraloids, Inc., Wilton, NH). In the case of Assay Method I the extraction tube also contained 1,000 and 10,000 dpm of [4-^14C]-dihydrotestosterone (50-60 mCi/mmol) and [4-^14C]-testosterone (50 mCi/mmol) (New England Nuclear, Boston, MA), respectively. The [^14C]-steroids were included as recovery standards to quantify procedural losses. A small amount of NaCl was also added to the extraction tubes to prevent foaming. The samples were vortexed for approximately 30 seconds and then centrifuged for 10 minutes at 500 x g. The organic phase was collected and the samples taken to dryness, redissolved in dichloromethane-methanol (9:1) and were analyzed by thin layer chromatography using one of the methods described below.
Chromatography Method I (two-dimensional): The extracted samples were appled to silica gel 60F254, 0.25 mm thick, thin layer chromatography plates (EM Science, Cincinnati, OH). The plates were developed in the first dimension with a solvent system containing dichloromethane-ethyl acetate-methanol-acetic acid (160:38:1.5:0.5, Mallinckrodt Inc., Paris, KY).

| SMILES | inhibition at 0.316 µM [%] |
| --- | --- |
| CN1C(=O)CC[C@@H]2c3ccc(Cl)cc3CC[C@H]21 [Example 64, (-)-(4aR)-(10bR)-8-chloro-4-methyl-1,2,3,4,4a,5,6, lOb-octahydrobenzo[f]quinolin-3-one] | 91.5 |

Same assay, conditions: Hs68, test compound 0.316 µM; Hs68 cells; substrate testosterone 12 µM; incubated four hours; read-out: % Inhibition

| SMILES | inhibition at 0.316 µM [%] |
| --- | --- |
| CN1C(=O)CC[C@@H]2c3cc([N+](=O)[O-])ccc3CC[C@H]21 (racemic) [Example 47, trans-dl-9-nitro-4-methyl-1,2,3,4,4a,5,6,10b-octahydrobenzo[f]quinolin-3-one] | 49.7 |
| CN1C(=O)CC[C@@H]2c3cc(N)ccc3CC[C@H]21 (racemic) [Example 48, trans-dl-9-amino-4-methyl-1,2,3,4,4a,5,6,10b-octahydrobenzo[f]quinolin-3-one] | 4.36 |
| CN1C(=O)CC[C@@H]2c3cc(Cl)ccc3CC[C@H]21 (racemic) [Example 49, trans-dl-9-chloro-4-methyl-1,2,3,4,4a,5,6,10b-octahydrobenzo[f]guinolin-3-one] | 65.7 |
| O=C1C=C[C@@H]2c3ccc(Cl)cc3CC[C@H]2N1 (racemic) [Example 50A, trans-dl-8-chloro-3,4,4a,5,6,10b-hexahydrobenzo[f]quinolin-3-one] | 83.3 |
| O=C1CC=C2c3ccc(Cl)cc3CCC2N1 (racemic) [Example 50B, dl-8-chloro-2,3,4,4a,5,6-hexahydrobenzo[f]quinolin-3-one] | 84 |
| CN1C(=O)CC=C2c3ccc(Cl)cc3CCC21 (racemic) [Example 53, dl-8-chloro-4-methyl-2,3,4,4a,5,6-hexahydrobenzo[f]quinolin-3-one] | 74.8 |
| C[C@@H]1C[C@@H]2c3ccc(Cl)cc3C=C[C@H]2N(C)C1=O (racemic) [Example 54, trans-dl-8-chloro-2-a-methyl-4-methyl-1,2,3,4,4a,10b-hexahydrobenzo[f]quinolin-3-one] | 73.8 |
| CN1C(=O)CC[C@@H]2c3ccc(CCC(=O)NC(C)(C)C)cc3CC[C@H]21 (racemic) [Example 55, trans-dl-8-t-butylaminocarbonylethanediyl-4-methyl-1,2,3,4,4a,5,6,10b-octahydrobenzo[f]quinolin-3-one] | 17.3 |
| CN1C(=O)CC[C@@H]2c3ccc(-c4ccccc4)cc3CC[C@H]21 (racemic) [Example 56, trans-dl-8-phenyl-4-methyl-1,2,3,4,4a,5,6,10b-octahydrobenzo[f]quinolin-3-one] | 74.8 |
| C=Cc1ccc2c(c1)CC[C@@H]1[C@@H]2CCC(=O)N1C (racemic) [Example 57, trans-dl-8-vinyl-4-methyl-1,2,3,4,4a,5,6,10b-octahydrobenzo[f]quinolin-3-one] | 66.6 |
| CCOC(=O)c1ccc2c(c1)CC[C@@H]1[C@@H]2CCC(=O)N1C (racemic) [Example 58, trans-dl-8-ethoxycarbonyl-4-methyl-1,2,3,4,4a,5,6,10b-octahydrobenzo[f]quinolin-3-one] | 65.7 |
| CCN1C(=O)CC[C@@]2(C)c3ccccc3CC[C@H]12 (relative stereo) [Example 42, trans-4-ethyl-10b-methyl-1,2,3,4,4a,5,6,10b-octahydrobenzo[f]quinolin-3-one] | 10.9 |
| CCCCN1C(=O)CC[C@@]2(C)c3ccccc3CC[C@H]12 (relative stereo) [Example 43, trans-4-n-butyl-10b-methyl-1,2,3,4,4a,5,6,10b-octahydrobenzo[f]quinolin-3-one] | 11.9 |
| CN1C(=O)CC[C@]2(C)c3ccc(Cl)cc3CC[C@@H]12 [Example 59, (R) (+)-trans-4-methyl-8-chloro-10b-methyl-1,2,3,4,4a,5,6,10b-octahydrobenzo[f]quinolin-3-one] | 71.9 |
| C[C@]12C=CC(=O)N[C@@H]1CCc1cc(Cl)ccc12 [Example 61, (R) (+)-trans-8-chloro-10b-methyl-3,4,4a,5,6,10b-hexahydrobenzo[f]quinolin-3-one] | 61.5 |
| CN1C(=O)CC[C@H]2c3ccc(Cl)cc3CC[C@@H]21 [Example 65, (+)-(4aS)-(10bS)-8-chloro-4-(methyl)-1,2,3,4,4a,5,6,10b-octahydrobenzo[f]quinolin-3-one] | 95.6 |

Same assay, conditions: Hs68, test compound 1.00 µM; Hs68 cells; substrate testosterone 12 µM; incubated four hours

| SMILES | inhibition at 1 µM [%] |
| --- | --- |
| CN1C(=O)CCC2(C)c3ccc(Cl)cc3CCC12 (racemic) [Example 34, trans-dl-8-chloro-4,10b-di-methyl-1,2,3,4,4a,5,6,10b-octahydrobenzo[f]-quinolin-3-one] | 94.2 |

Same assay, conditions: Hs68, test compound 1.00 µM; Hs68 cells; substrate testosterone 12 µM; incubated four hours; read-out: % Inhibition

| SMILES | inhibition at 1 µM [%] |
| --- | --- |
| CN1C(=O)CCC2(C)c3ccc(F)cc3CCC12 (racemic) [Example 32, trans-dl-8-fluoro-4,10b-dimethyl-1,2,3,4,4a,5,6,10b-octahydrobenzo[f]quinolin-3-one] | 81.6 |
| C[C@]12CCC(=O)N[C@@H]1CCc1cc(Cl)ccc12 (racemic) [Example 38, trans-dl-8-chloro-10b-methyl-1,2,3,4,4a,5,6,10b-octahydrobenzo[f]quinolin-3-one] | 34 |
| CN1C(=O)C=C[C@@H]2c3ccc(Br)cc3CC[C@H]21 (racemic) [Example 51, trans-dl-8-bromo-4-methyl-3,4,4a,5,6,10b-hexahydrobenzo[f]quinolin-3-one] | 95.1 |
| CN1C(=O)C=C[C@@H]2c3ccc(Cl)cc3CC[C@H]21 (racemic) [Example 52, trans-dl-8-chloro-4-methyl-3,4,4a,5,6,10b-hexahydrobenzo[f]quinolin-3-one] | 71.8 |

Same assay, conditions: Hs68, test compound 3.16 µM; Hs68 cells; substrate testosterone 12 µM; incubated four hours

| SMILES | inhibition at 3.16 µM [%] |
| --- | --- |
| CN1C(=O)CC[C@@]2(C)c3ccccc3CC[C@H]12 (stereo in doubt) [Example 45, trans-4-methyl-10b-methyl-1,2,3,4,4a,5,6,10b-octahydrobenzo[f]quinolin-3-one] | 72.2 |

Same assay, conditions: Hs68, test compound 150.00 µM; Hs68 cells; substrate testosterone 12 µM; incubated four hours

| SMILES | inhibition at 150 µM [%] |
| --- | --- |
| C[C@]12CCC(=O)N[C@@H]1CCc1ccccc12 (racemic) [Example 36, trans-dl-10b-methyl-1,2,3,4,4a,5,6,10b-octahydrobenzo[f]quinolin-3-one] | 43.9 |

Same assay, conditions: test compound 0.316 µM; Hs68 cells; substrate testosterone 12 µM; incubated four hours; read-out: % Inhibition

| SMILES | inhibition at 0.316 µM [%] |
| --- | --- |
| COc1ccc(CN2C(=O)CC[C@]3(C)c4ccc(Cl)cc4CC[C@@H]23)cc1 [Example 44] | 5.7 |

Same assay, conditions: test compound 1.00 µM; Hs68 cells; substrate testosterone 12 µM; incubated four hours; read-out: % Inhibition

| SMILES | inhibition at 1 µM [%] |
| --- | --- |
| CN1C(=O)CC[C@]2(C)c3ccccc3CC[C@@H]12 (stereo in doubt) [Example 37, trans-dl-4,10b-dimethyl-1,2,3,4,4a,5,6,10b-octahydrobenzo[f]quinolin-3-one] | 40 |

Same assay, conditions: test compound 15.00 µM; Hs68 cells; substrate testosterone 12 µM; incubated four hours

| SMILES | inhibition at 15 µM [%] |
| --- | --- |
| O=C1CC[C@@H]2c3cc([N+](=O)[O-])ccc3CC[C@H]2N1 (racemic) [Example 46, trans-dl-9-nitro-1,2,3,4,4a,5,6,10b-octahydrobenzo[f]quinolin-3-one] | 69.9 |

Source: patent EP0591583B1, “Benzo (f) quinolinones as 5-alpha-reductase inhibitors” (ELI LILLY AND COMPANY, priority 1992, dated 1994)
